Where two headings read alike, the source gives them in different places.

Results on 40 molecules are retold here after US6174907A, “Benzimidazole compounds containing 1,2,4-triazole ring, and compositions and methods of use containing the same” (Fuji Photo Film Co., Ltd., priority 1995, dated 2001).

In series [1] the test system is mouse peritoneal macrophages. Briefly: Cytotoxicity examined microscopically (morphological alteration of cells). Type of series: cell-based, mouse (female ICR). The following applies: 5 μM, observed microscopically. The protocol: (§1) Activity of the compounds of the present invention for suppressing the foaming of macrophages, which triggers arterial sclerosis, was examined by an in vitro experiment using mouse peritoneal macrophages. 15-Week old female ICR mice (Nippon SLC) were subjected to bleeding by cutting off their cervicalis, and Hanks buffer (Nippon Seiyaku) was injected into their peritoneal cavities. After abdominal regions of the mice were massaged, the buffer was recovered immediately, and then the resulting buffer was centrifuged at 1,000 r.p.m. for five minutes to collect peritoneal macrophages. Then, the collected macrophages were suspended in GTI medium (Wako Pure Chemical Industries), and inoculated onto a 24-well microtiter plate. After the macrophages were cultivated at 37° C. under 5% CO2 for two hours, the culture medium was changed with Dulbecco Modified Eagle Medium (MEM, Nippon Seiyaku). The macrophages were further cultivated at 37° C. under 5% CO2 for 16 hours, and then a test compound and liposomes were added to the culture.
(§2) After cultivation was further continued at 37° C. under 5% CO2 for 16 hours, lipid fraction was extracted with chloroform and methanol. The extracted lipid fraction was dissolved in isopropyl alcohol, and the produced cholesterol ester (CE) was quantified by an enzymatic luminescence method. Yield of the cholesterol ester was calculated as a relative ratio based on yield of the control as 100% where no test compound was added. Cytotoxicity was examined microscopically by observing morphological alteration of cells. In the tables, compound numbers correspond to those of the compounds of present invention described in the examples.

Series [2] relates to mouse peritoneal macrophages. In words: Suppression of foaming of macrophages (cholesterol ester synthesis) in vitro. The series is classed as cell-based, mouse (female ICR). The following applies: Mus musculus, Peritoneal macrophage, 5 μM, 16 hours, relative to control as 100%, smaller value = more potent suppression, read-out: Rate of CE synthesis (%). The protocol:
Activity of the compounds of the present invention for suppressing the foaming of macrophages
as §1
1) Test compound: dissolved in DMSO (Wako Pure Chemical Industries),
PC: Phosphatidylcholine (Funakoshi);
PS: Phosphatidylserine (Funakoshi);
DCP: Dicetylphosphate (Funakoshi);
CHOL: Cholesterol (Sigma)
as §2

In the case of `Cc1cc2nc(SCCCCCSc3nc4ccccc4[nH]3)[nH]c2cc1C` [Compound A10, 1-(2'-(5',6'-dimethylbenzimidazolyl)thio)-5-(2"-benzimidazolylthio)pentane], the Cytotoxicity result in series [1] (Table 3) is listed as “Not observed”. Also, the activity at 5 µM in series [2] (Table 3) stood at 20%.
In the same order, the values of `Clc1cc2nc(SCCCCCCCCSc3nc4ccccc4[nH]3)[nH]c2cc1Cl` [Compound A13, 1-(2'-(5',6'-dichlorobenzimidazolyl)thio)-8-(2"-benzimidazolylthio)octane] are “Not observed” and 58%.
With `c1ccc(-c2nnc(SCCCCCSc3nc4ccccc4[nH]3)o2)cc1` [Compound B26], in series [1] (Table 4), the Cytotoxicity entry is recorded as “Not observed”. Moreover, the activity at 5 µM in series [2] (Table 4) was 12%.
In the same order, the values of `c1ccc(SCCCCSc2nc3ccccc3[nH]2)nc1` [Compound B29] are “Not observed” and 14%.
For `Cc1cc2nc(CCCCCSc3ccccn3)[nH]c2cc1C` [Compound B45], in that order: “Not observed” and 48%.
As for `c1ccc(SCCOCCSc2nc3ccccc3[nH]2)nc1` [Compound B67], in series [1] (Table 4), the Cytotoxicity result is listed as “Not observed”. Further, the activity at 5 µM in series [2] (Table 4) is 54%.
On to `FC(F)(F)c1ccc2c(SCCCCCSc3nc4ccccc4[nH]3)ccnc2c1` [Compound B63], for which the Cytotoxicity result in series [1] (Table 4) is given as “Not observed”. Also, the activity at 5 µM in series [2] (Table 4) was 15%.
Consider `Cc1ccc2[nH]c(SCCCCCSc3nc4ccccc4s3)nc2c1` [Compound A36], for which the Cytotoxicity result in series [1] (Table 3) is “Not observed”. Besides, the activity at 5 µM in series [2] (Table 3) worked out at 21%.
Take `CNS(=O)(=O)c1ccc2c(c1)nc(SCCCCCSc1ccccn1)n2C` [Compound B66]: the Cytotoxicity result in series [1] (Table 4) was “Not observed”. Further, the activity at 5 µM in series [2] (Table 4) amounted to 52%.
Consider `c1ccc(-n2cnnc2SCCCCCSc2nc3ccccc3[nH]2)cc1` [Compound B7], for which the Cytotoxicity entry in series [1] (Table 4) was “Not observed”. Further, the activity at 5 µM in series [2] (Table 4) amounted to 21%.
In the same order, the values of `Cc1ccnc(SCCCCCSc2nc3ccccc3[nH]2)n1` [Compound B50] are “Not observed” and 22%.
For `Oc1cc(SCCCCCSc2nc3cc(Cl)c(Cl)cc3[nH]2)nc2ccccc12` [Compound B58], in that order: “Not observed” and 18%.
In the same order, the values of `COc1ccc2[nH]c(SCCCCCSc3ccccn3)nc2c1` [Compound B34] are “Not observed” and 37%.
Turning to `Cc1ccc2[nH]c(SCCCCCCSc3nc4ccccc4[nH]3)nc2c1` [Compound A19, 1-(2'-(5'-methylbenzimidazolyl)thio)-6-(2"-benzimidazolylthio)hexane], the Cytotoxicity entry in series [1] (Table 3) is on record as “Not observed”. In addition, the activity at 5 µM in series [2] (Table 3) was 54%.
For `Oc1ccnc(SCCCCCSc2nc3ccccc3[nH]2)c1` [Compound B53], the Cytotoxicity entry in series [1] (Table 4) is recorded as “Not observed”. Besides, the activity at 5 µM in series [2] (Table 4) is 52%.
On to `O=[N+]([O-])c1ccnc(SCCCCCSc2nc3ccccc3[nH]2)c1` [Compound B42], for which the Cytotoxicity result in series [1] (Table 4) is given as “Not observed”. For the same molecule, in series [2] (Table 4), the activity at 5 µM is 12%.
In the same order, the values of `c1ccc(-n2ccnc2SCCCCCSc2nc3ccccc3[nH]2)cc1` [Compound B3] are “Not observed” and 34%.
As for `c1ccc2[nH]c(SCCCCCSc3nc4ccccc4s3)nc2c1` [Compound A33, 1-(2'-benzimidazolylthio)-5-(2"-benzothiazolylthio)pentane], in series [1] (Table 3), the Cytotoxicity entry was “Not observed”. Further, the activity at 5 µM in series [2] (Table 3) was determined as 13%.
In the same order, the values of `Clc1ccc2sc(SCCCCCSc3nc4ccccc4[nH]3)nc2c1` [Compound A34, 1-(2'-benzimidazolylthio)-5-(2"-(5"-chlorobenzothiazolyl)thio)pentane] are “Not observed” and 28%.
For `Cc1ccc2[nH]c(SCCCCSc3nc4ccccc4[nH]3)nc2c1` [Compound A18, 1-(2'-(5'-methylbenzimidazolyl)thio)-4-(2"-benzimidazolylthio)butane], in series [1] (Table 3), the Cytotoxicity result is “Not observed”. In addition, the activity at 5 µM in series [2] (Table 3) was 52%.
For `Cc1ccc2[nH]c(SCCCCCSc3nc4ccccc4[nH]3)nc2c1` [Compound A1, 1-(2'-(5'-methylbenzimidazolyl)thio)-5-(2"-benzimidazolylthio)pentane], in that order: “Not observed” and 41%.
In the same order, the values of `Cc1ccc2[nH]c(SCCCCCSc3nc4cc(Cl)ccc4[nH]3)nc2c1` [Compound A3, 1-(2-(5'-chlorobenzimidazolyl)thio)-5-(2"-(5"-methylbenzimidazolyl)thio)pentane] are “Not observed” and 36%.
For `FC(F)(F)c1cc2[nH]c(SCCCCCSc3nc4ccccc4[nH]3)nc2cc1Cl` [Compound A16, 1-(2'-(5'-chloro-6'-trifluoromethylbenzimidazolyl)thio)-5-(2"-benzimidazolylthio)pentane], in that order: “Not observed” and 34%.
`CCOC(=O)c1ccc2[nH]c(SCCCCCSc3ccccn3)nc2c1` [Compound B36]: in series [1] (Table 4), the Cytotoxicity result is on record as “Not observed”. Further, the activity at 5 µM in series [2] (Table 4) was 26%.
In the same order, the values of `CN(C)C(=O)c1nnc(SCCCCCSc2nc3ccccc3[nH]2)s1` [Compound B18] are “Not observed” and 35%.
With `N#Cc1ccc2[nH]c(SCCCCCSc3nc4ccccc4[nH]3)nc2c1` [Compound A17, 1-(2'-(5'-cyanobenzimidazolyl)thio)-5-(2"-benzimidazolylthio)pentane], the Cytotoxicity result in series [1] (Table 3) was “Not observed”. The activity at 5 µM in series [2] (Table 3) worked out at 24%.
For `Cc1cc2nc(CCCCCSc3nc4ccccc4[nH]3)[nH]c2cc1C` [Compound A28, 2-(5-(2'-benzimidazolylthio)pentyl)-5,6-dimethylbenzimidazole], the Cytotoxicity result in series [1] (Table 3) is given as “Not observed”. Moreover, the activity at 5 µM in series [2] (Table 3) was 49%.
In the same order, the values of `Cc1ccc2[nH]c(SCCOCCOCCSc3nc4ccccc4[nH]3)nc2c1` [Compound A22] are “Not observed” and 20%.
As to `Cc1cc(C)nc(SCCCCCSc2nc3ccccc3[nH]2)n1` [Compound B51], the Cytotoxicity result in series [1] (Table 4) was “Not observed”. In addition, the activity at 5 µM in series [2] (Table 4) was found to be 24%.
Take `CS(=O)(=O)Nc1ccc2[nH]c(SCCCCCSc3nc4ccccc4[nH]3)nc2c1` [Compound A7, 1-(2'-benzimidazolylthio)-5-(2"-(5"-methanesulfonylamino-benzimidazolyl)thio)pentane]: the Cytotoxicity entry in series [1] (Table 3) is “Not observed”. For the same molecule, the activity at 5 µM in series [2] (Table 3) worked out at 22%.
In the same order, the values of `c1ccc2[nH]c(SCCCCCSc3nc4ccccc4o3)nc2c1` [Compound A37, 1-(2'-benzimidazolylthio)-5-(2"-benzoxazolylthio)pentane] are “Not observed” and 13%.
For `c1ccc2[nH]c(SCCCCCSc3nnc(-c4ccncc4)o3)nc2c1` [Compound B24], in series [1] (Table 4), the Cytotoxicity result was “Not observed”. Further, the activity at 5 µM in series [2] (Table 4) stood at 9.5%.
For `CC(=O)Nc1nnc(SCCCCCSc2nc3ccccc3[nH]2)s1` [Compound B17], in that order: “Not observed” and 18%.
In the case of `CSc1nnc(SCCCCCSc2nc3ccccc3[nH]2)s1` [Compound B19], the Cytotoxicity entry in series [1] (Table 4) is on record as “Not observed”. In series [2] (Table 4), the activity at 5 µM is 21%.
In the same order, the values of `CC1(C)COC(SCCCCCSc2nc3ccccc3[nH]2)=N1` [Compound B23] are “Not observed” and 38%.
For `Oc1ncnc2[nH]c(SCCCCCSc3nc4ccccc4[nH]3)nc12` [Compound B14], in that order: “Not observed” and 48%.
As to `Cn1cnnc1SCCCCCSc1nc2ccccc2[nH]1` [Compound B6], in series [1] (Table 4), the Cytotoxicity entry is recorded as “Not observed”. For the same molecule, in series [2] (Table 4), the activity at 5 µM was 22%.
In the case of `CCC(=O)Nc1ccc2[nH]c(SCCCCCSc3nc4ccccc4[nH]3)nc2c1` [Compound A8, 1-(2'-benzimidazolylthio)-5-(2"-(5"-propionylaminobenzimidazolyl)thio)pentane], in series [1] (Table 3), the Cytotoxicity entry is on record as “Not observed”. Moreover, the activity at 5 µM in series [2] (Table 3) was 24%.
Regarding `c1ccc2[nH]c(SCCCCCSc3ncnc4nc[nH]c34)nc2c1` [Compound B59], the Cytotoxicity entry in series [1] (Table 4) is “Not observed”. Besides, the activity at 5 µM in series [2] (Table 4) turned out to be 9.2%.
For the molecule `Clc1cc2nc(SCCCCCSc3nc4ccccc4[nH]3)[nH]c2cc1Cl` [Compound A11, 1-(2'-(5',6'-dichlorobenzimidazolyl)thio)-5-(2"-benzimidazolylthio)pentane], the Cytotoxicity entry in series [1] (Table 3) is “Not observed”. For the same molecule, in series [2] (Table 3), the activity at 5 µM is 9%.
